“And” between values parts separate entries of the source, which are not always exact repeats. Identical values can stand only once.
Assays:
[1] = system: BRD proteins in U2OS KO/rescue lysate; experiment: Degradation in non-denaturing lysates of U2OS KO/rescue cells; details: non-denaturing U2OS KO/rescue lysate 4mg/ml, 10 µM, 30° C
BRD4 = BRD4 (Homo sapiens, UniProt O60885); experiment: Western blot of BRD4 levels after cellular dosing; details: for BRD4 (DMSO = 100): Rep1, Rep2

Compound: COC(=O)CNC(=O)Cc1csc(-c2ccc3cccc(OCCN4CCN(C(=O)C[C@@H]5N=C(c6ccc(Cl)cc6)c6c(sc(C)c6C)-n6c(C)nnc65)CC4)c3c2)n1 [SJ46420]
- degrader dependent decrease in BRD protein levels in lysate [1]: did not observe a degrader dependent decrease
- BRD4 level relative to DMSO (100%) (BRD4; 22Rv1, 0.16µM, 24 h, Fig S6f): 105 +/- 5.8%
- BRD4 level relative to DMSO (100%) (BRD4; 22Rv1, 0.63µM, 24 h, Fig S6f): 101 +/- 7.2%
- BRD4 level relative to DMSO (100%) (BRD4; 22Rv1, 1.3µM, 24 h, Fig S6f): 89 +/- 2.9%
- BRD4 level relative to DMSO (100%) (BRD4; 22Rv1, 2.5µM, 24 h, Fig S6f): 88 +/- 11%
- BRD4 level relative to DMSO (100%) (BRD4; 22Rv1, 5µM, 24 h, Fig S6f): 83 +/- 10%
- BRD4 level relative to DMSO (100%) (BRD4; 22Rv1, 10µM, 24 h, Fig S6f): 68 +/- 15%
- Dmax (BRD4; 22Rv1, read-out: BRD4 Dmax, 22Rv1, 24 h dose): 30%
- BRD4 level relative to DMSO (100%) (BRD4; 293T, 2.5µM, 24 h, Fig S6a): 98 +/- 5.3%
- BRD4 level relative to DMSO (100%) (BRD4; 293T, 5µM, 24 h, Fig S6a): 79 +/- 6.6%
- BRD4 level relative to DMSO (100%) (BRD4; AU565, 0.2µM, 8 h, Fig S6c): 82 +/- 4.7%
- BRD4 level relative to DMSO (100%) (BRD4; AU565, 1µM, 8 h, Fig S6c): 53 +/- 5.1%
- BRD4 level relative to DMSO (100%) (BRD4; AU565, 5µM, 8 h, Fig S6c): 4.1 +/- 1.3%
- BRD4 level, Western blot quantification (DMSO = 100) (BRD4; Fig 6b, KO/Rescue, 5 uM): 91.0765 and 107.689
- BRD4 level, Western blot quantification (DMSO = 100) (BRD4; Fig 6b, U2OS, 5 uM): 77.4849 and 71.6749
- BRD4 level, Western blot quantification (DMSO = 100) (BRD4; Fig 6c, 1 uM): 92.7102 and 86.955
- BRD4 level, Western blot quantification (DMSO = 100) (BRD4; Fig 6d, 1 uM): 67.4942 and 82.9736
- BRD4 level, Western blot quantification (DMSO = 100) (BRD4; Fig 6d, 1uM together with 1uM MLN4924): 118.408 and 100.267
- BRD4 level, Western blot quantification (DMSO = 100) (BRD4; Fig S6a, 293T cells, 2.5 uM): 94.5347 and 102.135
- BRD4 level, Western blot quantification (DMSO = 100) (BRD4; Fig S6a, 293T cells, 5 uM): 74.6014 and 84.7353
- BRD4 level, Western blot quantification (DMSO = 100) (BRD4; Fig S6b, MDA-MB468 Cells, 2 uM): 86.0887 and 95.6433
- BRD4 level, Western blot quantification (DMSO = 100) (BRD4; Fig S6b, MDA-MB468 Cells, 5 uM): 75.9577 and 82.1258
- BRD4 level, Western blot quantification (DMSO = 100) (BRD4; Fig S6b, MDA-MB468 Cells, 10 uM): 65.8655 and 71.3135
- BRD4 level, Western blot quantification (DMSO = 100) (BRD4; Fig S6c, AU565 Cells, 0.2 uM): 78.2951 and 85.4236
- BRD4 level, Western blot quantification (DMSO = 100) (BRD4; Fig S6c, AU565 Cells, 1 uM): 49.0527 and 56.2352
- BRD4 level, Western blot quantification (DMSO = 100) (BRD4; Fig S6c, AU565 Cells, 5 uM): 3.1923 and 5.662
- BRD4 level, Western blot quantification (DMSO = 100) (BRD4; Fig S6e, PC3 KO/rescue Dose Response, 0.156 uM): 98.9143 and 85.6296
- BRD4 level, Western blot quantification (DMSO = 100) (BRD4; Fig S6e, PC3 KO/rescue Dose Response, 0.313 uM): 95.5722 and 70.9157
- BRD4 level, Western blot quantification (DMSO = 100) (BRD4; Fig S6e, PC3 KO/rescue Dose Response, 0.625 uM): 77.9263 and 60.6542
- BRD4 level, Western blot quantification (DMSO = 100) (BRD4; Fig S6e, PC3 KO/rescue Dose Response, 1.25 uM): 36.0358 and 57.3958
- BRD4 level, Western blot quantification (DMSO = 100) (BRD4; Fig S6e, PC3 KO/rescue Dose Response, 2.5 uM): 28.2357 and 25.3138
- BRD4 level, Western blot quantification (DMSO = 100) (BRD4; Fig S6e, PC3 KO/rescue Dose Response, 5 uM): 3.953 and 2.975
- BRD4 level, Western blot quantification (DMSO = 100) (BRD4; Fig S6e, PC3 KO/rescue Dose Response, 10uM): 0.3603 and 0.6573
- BRD4 level, Western blot quantification (DMSO = 100) (BRD4; Fig S6f, 22RV1 KO/rescue Dose Response, 0.156 uM): 101.401 and 109.713
- BRD4 level, Western blot quantification (DMSO = 100) (BRD4; Fig S6f, 22RV1 KO/rescue Dose Response, 0.313 uM): 109.261 and 111.474
- BRD4 level, Western blot quantification (DMSO = 100) (BRD4; Fig S6f, 22RV1 KO/rescue Dose Response, 0.625 uM): 106.365 and 96.1732
- BRD4 level, Western blot quantification (DMSO = 100) (BRD4; Fig S6f, 22RV1 KO/rescue Dose Response, 1.25 uM): 91.1283 and 87.0112
- BRD4 level, Western blot quantification (DMSO = 100) (BRD4; Fig S6f, 22RV1 KO/rescue Dose Response, 2.5 uM): 95.8637 and 80.8873
- BRD4 level, Western blot quantification (DMSO = 100) (BRD4; Fig S6f, 22RV1 KO/rescue Dose Response, 5 uM): 91.3116 and 76.191
- BRD4 level, Western blot quantification (DMSO = 100) (BRD4; Fig S6f, 22RV1 KO/rescue Dose Response, 10uM): 79.6577 and 57.9117
- BRD4 level, Western blot quantification (DMSO = 100) (BRD4; Fig S6g, SKBR3 Time course, 1 uM, 2hr): 104.311 and 100.652
- BRD4 level, Western blot quantification (DMSO = 100) (BRD4; Fig S6g, SKBR3 Time course, 1 uM, 4hr): 75.4286 and 82.2353
- BRD4 level, Western blot quantification (DMSO = 100) (BRD4; Fig S6g, SKBR3 Time course, 1 uM, 8hr): 78.3987 and 72.5234
- BRD4 level, Western blot quantification (DMSO = 100) (BRD4; Fig S6g, SKBR3 Time course, 5 uM, 2hr): 109.415 and 100.234
- BRD4 level, Western blot quantification (DMSO = 100) (BRD4; Fig S6g, SKBR3 Time course, 5 uM, 4hr): 59.7954 and 68.2545
- BRD4 level, Western blot quantification (DMSO = 100) (BRD4; Fig S6g, SKBR3 Time course, 5 uM, 8hr): 59.199 and 52.2362
- BRD4 level, Western blot quantification (DMSO = 100) (BRD4; Fig S6i, SKBR3, 5uM): 72.6081 and 84.277
- BRD4 level, Western blot quantification (DMSO = 100) (BRD4; Fig S6i, U2OS, 5uM): 157.053 and 196.781
- BRD4 level, Western blot quantification (DMSO = 100) (BRD4; Fig S6h, U2OS Time course, 5uM, 2hr): 126.968 and 100.342
- BRD4 level, Western blot quantification (DMSO = 100) (BRD4; Fig S6h, U2OS Time course, 5uM, 4hr): 91.1641 and 100.137
- BRD4 level, Western blot quantification (DMSO = 100) (BRD4; Fig S6h, U2OS Time course, 5uM, 8hr): 65.7267 and 72.5334
- BRD4 level, Western blot quantification (DMSO = 100) (BRD4; Fig S6h, U2OS Time course, 5uM, 24hr): 56.1641 and 64.2352
- BRD4 level, Western blot quantification (DMSO = 100) (BRD4; Fig S6d, U2OS KO/rescue Dose Response, 0.156 uM): 81.019 and 75.43
- BRD4 level, Western blot quantification (DMSO = 100) (BRD4; Fig S6d, U2OS KO/rescue Dose Response, 0.313 uM): 75.0042 and 85.343
- BRD4 level, Western blot quantification (DMSO = 100) (BRD4; Fig S6d, U2OS KO/rescue Dose Response, 0.625 uM): 69.2459 and 75.342
- BRD4 level, Western blot quantification (DMSO = 100) (BRD4; Fig S6d, U2OS KO/rescue Dose Response, 1.25 uM): 72.3683 and 63.23
- BRD4 level, Western blot quantification (DMSO = 100) (BRD4; Fig S6d, U2OS KO/rescue Dose Response, 2.5 uM): 72.6616 and 79.232
- BRD4 level, Western blot quantification (DMSO = 100) (BRD4; Fig S6d, U2OS KO/rescue Dose Response, 5 uM): 65.5064 and 72.323
- BRD4 level relative to DMSO (100%) (BRD4; MDA-MB-468, 2.5µM, 24 h, Fig S6b): 90 +/- 6.3%
- BRD4 level relative to DMSO (100%) (BRD4; MDA-MB-468, 5µM, 24 h, Fig S6b): 78 +/- 4.3%
- BRD4 level relative to DMSO (100%) (BRD4; MDA-MB-468, 10µM, 24 h, Fig S6b): 68 +/- 3.6%
- BRD4 level relative to DMSO (100%) (BRD4; PC3, 0.16µM, 24 h, Fig S6e): 78 +/- 4.1%
- BRD4 level relative to DMSO (100%) (BRD4; PC3, 0.31µM, 24 h, Fig S6e): 80 +/- 7.3%
- BRD4 level relative to DMSO (100%) (BRD4; PC3, 0.63µM, 24 h, Fig S6e): 72 +/- 4.3%
- BRD4 level relative to DMSO (100%) (BRD4; PC3, 1.3µM, 24 h, Fig S6e): 67 +/- 6.5%
- BRD4 level relative to DMSO (100%) (BRD4; PC3, 2.5µM, 24 h, Fig S6e): 75 +/- 4.7%
- BRD4 level relative to DMSO (100%) (BRD4; PC3, 5µM, 24 h, Fig S6e): 68 +/- 4.8%
- BRD4 level relative to DMSO (100%) (BRD4; PC3, 10µM, 24 h, Fig S6e): 44 +/- 5.7%
- BRD4 (DMSO = 100) (BRD4; PC3 cells, Log SJ46420 1.89279): 90.1763 and 93.433
- BRD4 (DMSO = 100) (BRD4; PC3 cells, Log SJ46420 4): 40.11 and 48.232
- BRD4 level relative to DMSO (100%) (BRD4; SKBR3, 1µM, 2hr, Fig S6g): 102 +/- 3.1%
- BRD4 level relative to DMSO (100%) (BRD4; SKBR3, 1µM, 4hr, Fig S6g): 78 +/- 4.7%
- BRD4 level relative to DMSO (100%) (BRD4; SKBR3, 1µM, 8hr, Fig S6g): 75 +/- 4.5%
- BRD4 level relative to DMSO (100%) (BRD4; SKBR3, 5µM, 2hr, Fig S6g): 104 +/- 6.7%
- BRD4 level relative to DMSO (100%) (BRD4; SKBR3, 5µM, 4hr, Fig S6g): 63 +/- 5.8%
- BRD4 level relative to DMSO (100%) (BRD4; SKBR3, 5µM, 4hr, Fig S6j): 78 +/- 8.2%
- BRD4 level relative to DMSO (100%) (BRD4; SKBR3, 5µM, 8hr, Fig S6g): 55 +/- 5.1%
- BRD4 level relative to DMSO (100%) (BRD4; U2OS DC2KO (KLHDC2 knockout), 5µM, 24 h, Fig 6b): 99 +/- 12%
- BRD4 (DMSO = 100) (BRD4; U2OS KO/Rescue cells, Log SJ46420 1.59176): 106.334 and 102.232
- BRD4 level relative to DMSO (100%) (BRD4; U2OS KO/Rescue, 0.16µM, 24 h, Fig S6d): 92 +/- 9.3%
- BRD4 level relative to DMSO (100%) (BRD4; U2OS KO/Rescue, 0.31µM, 24 h, Fig S6d): 83 +/- 16%
- BRD4 level relative to DMSO (100%) (BRD4; U2OS KO/Rescue, 0.63µM, 24 h, Fig S6d): 69 +/- 12%
- BRD4 level relative to DMSO (100%) (BRD4; U2OS KO/Rescue, 1µM, 24 h, Fig 6c): 90 +/- 4.1%
- BRD4 level relative to DMSO (100%) (BRD4; U2OS KO/Rescue, 1µM, 24 h, Fig 6d): 75 +/- 10%
- BRD4 level relative to DMSO (100%) (BRD4; U2OS KO/Rescue, 1.3µM, 24 h, Fig S6d): 46 +/- 15%
- BRD4 level relative to DMSO (100%) (BRD4; U2OS KO/Rescue, 2.5µM, 24 h, Fig S6d): 26 +/- 2.1%
- BRD4 level relative to DMSO (100%) (BRD4; U2OS KO/Rescue, 5µM, 24 h, Fig S6d): 3.4 +/- 0.69%
- BRD4 Dmax (BRD4; U2OS KO/Rescue, 24 h dose): ~ 100%

— article PMC11470957, “Principles of paralog-specific targeted protein degradation engaging the C-degron E3 KLHDC2” (Nature Communications, 2024)
